From patent US20140120060A1, “TREATMENT OF RHEUMATOID ARTHRITIS AND ASTHMA USING PI3 KINASE INHIBITORS” (INFINITY PHARMACEUTICALS, INC., priority 2012, published 2014)
Where “and” joins values, the source holds several entries; their conditions need not be identical. Equal values may be shown once. Entries after “also recorded” stand apart in the source; their conditions may differ. Marks after values point to notes of the source that are not given here.

How the values were obtained:
[1] = Embryo/fetal developmental toxicity study in rabbits; details: female, rabbit, in vivo; pregnant rabbits, last day of dosing, 75 mg/kg/day; read-out: mean AUC0-24 hr at the NOAEL
[2] = test system: Caco-2 cell monolayers; assay: Membrane permeability in Caco-2 cell monolayers; format: in vitro ADME, human
[3] = target: T1, PI3K δ (Homo sapiens, UniProt O00329); assay: Clinical study in healthy adult subjects: basophil activation (CD63 on CCR3+ basophils); format: in vivo; set-up: from tissue; host or cells: blood basophils (CCR3+) of healthy adult subjects
T1 sequence (O00329 whole entry): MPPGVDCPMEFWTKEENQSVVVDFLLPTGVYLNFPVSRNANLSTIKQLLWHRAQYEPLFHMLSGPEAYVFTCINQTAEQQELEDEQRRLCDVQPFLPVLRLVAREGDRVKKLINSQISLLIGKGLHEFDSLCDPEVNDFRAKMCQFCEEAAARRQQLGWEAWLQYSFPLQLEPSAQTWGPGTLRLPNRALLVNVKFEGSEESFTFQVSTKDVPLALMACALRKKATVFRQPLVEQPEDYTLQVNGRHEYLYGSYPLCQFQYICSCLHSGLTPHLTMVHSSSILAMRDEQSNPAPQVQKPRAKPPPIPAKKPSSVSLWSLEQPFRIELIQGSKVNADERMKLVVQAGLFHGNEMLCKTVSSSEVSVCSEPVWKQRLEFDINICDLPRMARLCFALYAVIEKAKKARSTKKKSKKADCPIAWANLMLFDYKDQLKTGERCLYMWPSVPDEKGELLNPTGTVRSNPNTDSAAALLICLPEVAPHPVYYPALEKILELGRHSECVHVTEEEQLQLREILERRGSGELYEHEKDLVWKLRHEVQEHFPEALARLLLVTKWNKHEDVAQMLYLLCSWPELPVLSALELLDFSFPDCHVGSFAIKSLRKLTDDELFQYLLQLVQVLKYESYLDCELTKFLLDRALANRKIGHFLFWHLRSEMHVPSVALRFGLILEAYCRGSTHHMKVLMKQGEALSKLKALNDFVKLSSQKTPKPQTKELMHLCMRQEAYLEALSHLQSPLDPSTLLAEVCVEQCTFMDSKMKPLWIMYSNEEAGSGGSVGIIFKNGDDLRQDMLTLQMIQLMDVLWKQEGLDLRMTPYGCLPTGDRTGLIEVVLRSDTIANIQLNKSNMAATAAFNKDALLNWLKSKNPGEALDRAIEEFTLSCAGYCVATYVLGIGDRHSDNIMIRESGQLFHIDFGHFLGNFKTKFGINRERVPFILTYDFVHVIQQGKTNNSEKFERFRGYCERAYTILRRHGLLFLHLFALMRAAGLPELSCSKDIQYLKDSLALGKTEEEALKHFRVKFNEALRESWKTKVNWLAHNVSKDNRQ
T1 sequence (P27986 whole entry partner): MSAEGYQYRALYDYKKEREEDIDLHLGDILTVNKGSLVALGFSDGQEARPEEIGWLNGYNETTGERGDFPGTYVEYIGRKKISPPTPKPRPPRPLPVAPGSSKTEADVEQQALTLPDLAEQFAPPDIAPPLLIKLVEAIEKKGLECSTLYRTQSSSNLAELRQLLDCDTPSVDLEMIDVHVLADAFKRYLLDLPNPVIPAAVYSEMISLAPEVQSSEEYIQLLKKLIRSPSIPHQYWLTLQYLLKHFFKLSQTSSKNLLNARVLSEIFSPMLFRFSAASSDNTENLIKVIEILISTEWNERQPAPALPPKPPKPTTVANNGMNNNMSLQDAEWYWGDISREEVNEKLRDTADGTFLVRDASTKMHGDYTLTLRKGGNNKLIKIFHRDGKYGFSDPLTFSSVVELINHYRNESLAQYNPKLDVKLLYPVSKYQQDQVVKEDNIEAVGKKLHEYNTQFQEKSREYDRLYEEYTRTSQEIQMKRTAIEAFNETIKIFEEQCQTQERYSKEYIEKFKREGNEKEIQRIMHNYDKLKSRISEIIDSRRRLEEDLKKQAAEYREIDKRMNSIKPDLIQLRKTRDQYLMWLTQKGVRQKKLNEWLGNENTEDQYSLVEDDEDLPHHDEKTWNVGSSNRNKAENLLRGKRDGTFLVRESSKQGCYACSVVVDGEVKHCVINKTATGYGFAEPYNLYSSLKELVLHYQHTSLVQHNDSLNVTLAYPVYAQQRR

[4] = test system: B cell; assay: B cell proliferation; format: cell-based
[5] = test system: PBMCs; assay: R848 induced cytokine production in PBMCs; format: cell-based, human
Procedure: (§1) These experiments were conducted using PBMCs.

[6] = test system: respiratory system; assay: Respiratory study in Sprague-Dawley rat; details: male rats, single oral dose up to 350 mg/kg
[7] = test system: ovalbumin-induced lung inflammation; assay: Ovalbumin-induced murine model of asthma
[8] = test system: Human T-cell; assay: Human T-cell proliferation; format: cell-based
[9] = Plasma protein binding, rat plasma; format: in vitro ADME; details: 100 μM (41700 ng/mL)
From the text: […]. […] […].

[10] = Clinical study in healthy adult subjects: safety
[11] = Pharmacokinetics in BALB/c mice; format: in vivo, mouse
[12] = target: T1, PI3K δ; assay: In vitro PI3K δ inhibition (lipid kinase assay, TLC or HTRF); details: selectivity
[13] = Pharmacokinetics in Sprague-Dawley rats; format: in vivo, rat
[14] = test system: LPS-induced pulmonary inflammation; assay: Murine model of LPS-induced lung inflammation; format: in vivo, mice; details: 3 mg/kg PO 60 minutes prior to LPS; 6 h after challenge
Procedure: Multiple parameters of pulmonary inflammation were determined 6 h after LPS challenge. Instillation of LPS induced significant influx of leukocytes, mostly neutrophils, into the airways, as assessed by counting the number of cells in the bronchoalveolar lavage (BAL) fluid.

[15] = test system: DTH ear swelling; assay: Murine model of delayed type hypersensitivity (DNFB); format: in vivo
Procedure: The animals were subsequently challenged with DNFB on the pinna of the ear on day 5 to initiate an inflammatory reaction that was measured 24 hours later.

[16] = 13-week repeat-dose safety study in cynomolgus monkeys; details: both sexes, cynomolgus monkey, in vivo, oral, Day 91, combined sexes, 5 mg/kg/day, read-out: mean AUC0-24 hr at the NOAEL
Procedure: The no observed adverse effect level (NOAEL) in the 13-week rat study was 25 mg/kg/day (150 mg/m^2/day) and the NOAEL in the 13-week monkey study was 5 mg/kg/day (60 mg/m^2/day). On Day 91, the mean AUC0-24 hr values for combined sexes at the NOAELs were 14150 ng*h/mL in the rat, and 4015 ng*h/mL in the monkey.

[17] = test system: Murine B-cell; assay: Murine B-cell proliferation; format: cell-based; details: Mus musculus
[18] = test system: ovalbumin-induced pulmonary inflammation; assay: Rat ovalbumin allergic asthma model
[19] = Pharmacokinetics in Beagle dogs; format: in vivo, dog; details: PO 5 mg/kg
[20] = Embryo/fetal developmental toxicity study in rats; details: female, rat, in vivo; pregnant rats, last day of dosing, 35 mg/kg/day; read-out: mean AUC0-24 hr at the NOAEL
[21] = test system: TL2/TLR6; assay: PAM2CSK4 induced cytokine production in PBMCs; format: cell-based, human
Procedure: as §1
PAM2CSK4 signals through TL2/TLR6, which plays a role in atherosclerosis, colitis, ischemic injury, e.g., cardiac events and stroke.

[22] = target: T2, PI3K-β (Homo sapiens, UniProt P42338); assay: PI3K-β specific assay in platelets (thrombin peptide, activated GPIIb/IIIa); format: cell-based
T2 construct: from tissue; host or cells: platelets in whole blood
T2 sequence (P42338 whole entry): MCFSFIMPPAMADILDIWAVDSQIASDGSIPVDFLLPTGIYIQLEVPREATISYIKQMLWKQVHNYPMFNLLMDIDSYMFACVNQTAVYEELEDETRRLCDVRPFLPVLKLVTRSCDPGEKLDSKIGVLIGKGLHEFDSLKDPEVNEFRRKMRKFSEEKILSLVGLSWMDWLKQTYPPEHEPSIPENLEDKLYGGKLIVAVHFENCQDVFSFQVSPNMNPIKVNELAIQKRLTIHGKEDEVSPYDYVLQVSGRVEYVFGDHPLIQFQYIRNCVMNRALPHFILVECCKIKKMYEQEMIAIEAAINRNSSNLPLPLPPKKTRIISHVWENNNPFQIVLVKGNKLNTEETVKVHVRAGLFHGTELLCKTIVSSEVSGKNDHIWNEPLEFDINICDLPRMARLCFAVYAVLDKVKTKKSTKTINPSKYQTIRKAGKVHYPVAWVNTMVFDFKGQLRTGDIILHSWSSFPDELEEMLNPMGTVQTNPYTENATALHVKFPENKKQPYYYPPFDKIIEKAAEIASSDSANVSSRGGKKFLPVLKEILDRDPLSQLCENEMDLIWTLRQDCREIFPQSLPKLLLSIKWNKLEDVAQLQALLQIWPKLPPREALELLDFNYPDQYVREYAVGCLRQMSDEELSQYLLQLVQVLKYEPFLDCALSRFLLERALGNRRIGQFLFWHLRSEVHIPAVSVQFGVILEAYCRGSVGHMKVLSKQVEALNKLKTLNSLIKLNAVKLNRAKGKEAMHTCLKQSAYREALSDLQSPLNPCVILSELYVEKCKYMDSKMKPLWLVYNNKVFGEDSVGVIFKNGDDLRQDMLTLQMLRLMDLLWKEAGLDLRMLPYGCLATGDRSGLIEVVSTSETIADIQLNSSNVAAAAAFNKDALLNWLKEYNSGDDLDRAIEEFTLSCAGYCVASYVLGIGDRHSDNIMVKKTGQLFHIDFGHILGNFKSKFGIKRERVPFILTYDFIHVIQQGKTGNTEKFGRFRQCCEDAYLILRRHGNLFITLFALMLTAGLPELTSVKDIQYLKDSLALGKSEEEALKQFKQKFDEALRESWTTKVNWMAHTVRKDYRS
T2 sequence (P27986 whole entry partner): as the sequence (P27986 whole entry partner) above

[23] = test system: PG-PS model of arthritis; assay: Rat mono-articular PG-PS model; format: in vivo
Procedure: Animals are initially randomized into groups based on body weight but any with no ankle swelling following priming are eliminated from the groups to be reactivated. 10/group are retained into the primary treatment groups. The remaining animals are the baseline controls (Group 1).
Rats that have ankle inflammation are allowed to recover for two weeks, and then the swelling is reactivated (day 0) by a tail vein injection of 0.5 ml of 0.4 mg/ml PG-PS. Treatment with the test compounds is given QD the day prior to reactivation on day 0 and then daily.
Animals have caliper measures and paw volumes taken of ankles on day −3 (prior to reactivation on day 0 in the AM) and then on days 1, 2, 3, 4 (2 hrs post-dose) to determine if any anti-inflammatory effects are present in treated rats.
Scoring of Joints: PGPS ankles or knees are given scores of 0-5 for inflammation and bone resorption according to the following criteria: […]

[24] = test system: hemodynamic and electrocardiographic parameters; assay: Cardiovascular study in instrumented cynomolgus monkey; format: in vivo
From the text: Four non-naive, male monkeys implanted with radiotelemetry transmitters were utilized during the conduct of this study.

Compound: C[C@H](Nc1ncnc2[nH]cnc12)c1cc2cccc(Cl)c2c(=O)n1-c1ccccc1 [Compound 292]
- AUC(0-t) [1]: 66.2 µg·h/mL
- cell membrane permeability [2]: moderate
- Emax (reduction of basophil activation vs plasma concentration) ([3]; FIG. 21): 85%
- basophil activation ([3]; single and multiple doses, all dose levels, maximum at 1 hr post dose): dose-dependent reduction
- EC50 [4]: < 100 nM
- R848 induced IFN-α [5]: did not detectably affect
- R848 induced IL-1 [5]: slightly inhibited
- R848 induced IL-6 [5]: did not detectably affect
- R848 induced IL-8 [5]: did not detectably affect
- R848 induced TNF-α [5]: did not detectably affect
- respiratory parameters (respiratory rate, tidal volume, minute volume) [6]: no Compound 292-related effects
- leukocyte migration into the bronchoalveolar space ([7]; FIG. 15): inhibited
- eosinophil influx into the airway space (BAL fluid) ([7]; all doses tested, 0.03 to 10 mg/kg PO): significantly blocked
- lymphocyte and monocyte accumulation in BAL fluid ([7]; ovalbumin induced): reduced
- EC50 [8]: 9.5 nM
- protein bound in rat plasma [9]: 85.8%
- deaths and serious adverse events (SAEs) ([10]; all doses evaluated): no deaths and no serious adverse events
- safety laboratory or electrocardiogram (ECG) abnormalities ([10]; any portion of the study): No clinically significant safety laboratory or electrocardiogram (ECG) abnormalities
- QTcF at any assessment ([10]; serial ECGs): ≤ 500 ms
- largest change from baseline in QTcF ([10]; serial ECGs): 37 ms
- tolerability ([10]; single doses up to 30 mg and up to 10 mg total daily dose for 14 days): well tolerated
- Foral ([11]; BALB/c mice, PO 10 mg/kg suspension, calculated using AUC0-last): 7% and 7^i %
- half-life ([11]; BALB/c, mouse, in vivo, iv, 10 mg/kg): < 2 h
- lower dose inhibiting PI3K-δ compared to PI3K-γ, PI3K-β or PI3K-α [12]: at least 10 fold
- Foral ([13]; Sprague-Dawley rats, PO 10 mg/kg suspension): 57%
- half-life ([13]; Sprague-Dawley, rat, in vivo, intravenous, 2 mg/kg): < 2 h
- LPS-induced total leukocyte and neutrophil influx in BAL fluid [14]: inhibited
- ear swelling ([15]; 0.3, 1, 3 and 10 mg/kg PO): Dose dependent inhibition
- inhibition of ear swelling vs vehicle control ([15]; highest dose group (10 mg/kg PO, 30 minutes prior to DNFB challenge)): approximately 50%
- AUC(0-t) [16]: 4.01 µg·h/mL
- EC50 [17]: 0.5 nM
- levels of TNF-α, KC/GRO, IL-13 and IL-5 in the BAL ([18]; 10 mg/kg PO): inhibited; also recorded: significantly suppressed
- neutrophils and eosinophils in the BAL ([18]; 1 and 10 mg/kg PO, 48 hours after re-challenge): significantly reduced
- leukocyte migration into the bronchoalveolar space ([18]; FIG. 16): inhibited
- Foral ([19]; calculated using 0.5 mg/kg IV dose as reference and AUC0-last): 97^g,i %
- Foral ([19]; calculated using 1 mg/kg IV dose as reference and AUC0-last): 40% and 40^h,i %
- AUC(0-t) [20]: 62.2 µg·h/mL
- PAM2CSK4 induced IL-1 production [21]: Inhibited
- PAM2CSK4 induced IL-6 production [21]: Inhibited
- PAM2CSK4 induced IL-8 production [21]: Inhibited
- PAM2CSK4 induced TNF-α production [21]: Inhibited
- window between PI3K-γ and PI3K-β inhibition in whole blood [22]: about 4 fold
- inflammation when reactivated with PG-PS ([23]; FIG. 14A): dose-dependently controlled inflammation
- joint pathology in PG-PS model ([23]; FIG. 14B): dose-dependently improved joint pathology
- hemodynamic or electrocardiographic parameters ([24]; male cynomolgus monkeys, single oral dose of 5, 30 and 150 mg/kg): No Compound 292-related effects
- waveform abnormalities or arrhythmias ([24]; up to 150 mg/kg): no waveform abnormalities or arrhythmias
